From paper PMC7801683 (2021)

How the values were obtained:
[1] = test system: r(UGGAA)9 (RNA, repeat) UGGAAUGGAAUGGAAUGGAAUGGAAUGGAAUGGAAUGGAAUGGAA; assay: EMSA; details: 100 mM NaCl; 10 mM sodium cacodylate pH 7.0, room temperature; 2 µM compound
[2] = test system: GGA/AGA internal loop RNA duplex (RNA, mismatch bulge abasic) GUACUGGAACAUG/CAUGUAGAAGUAC; assay: UV melting; details: 100 mM NaCl; 10 mM sodium cacodylate pH 7.0; 20 µM compound, 4 µM RNA
[3] = test system: SCA31 hpRNA (RNA, hairpin) GUACUGGAACAUGUUUCAUGUGGAAGUAC; assay: ESI-TOF MS; details: 100 mM ammonium acetate; 50% methanol; 10 µM RNA, 40 µM compound
[4] = test system: SCA31 hpRNA (RNA, hairpin) GUACUGGAACAUGUUUCAUGUGGAAGUAC; assay: NMR solution structure; details: 100 mM NaCl; 20 mM sodium phosphate pH 6.9, 288 K
[5] = test system: SCA31 hpRNA (RNA, hairpin) GUACUGGAACAUGUUUCAUGUGGAAGUAC; assay: ITC; details: 100 mM NaCl; 10 mM sodium cacodylate pH 7.0, 25 °C; apparent; single set of identical sites
[6] = test system: GGA/GGA internal loop RNA duplex (UGGAA/UGGAA pentad) (RNA, mismatch bulge abasic) GUACUGGAACAUG/CAUGUGGAAGUAC; assay: UV melting; details: 100 mM NaCl; 10 mM sodium cacodylate pH 7.0; 20 µM compound, 4 µM RNA
[7] = test system: 5'-biotin-TEG r(UGGAA)9 (RNA, repeat) UGGAAUGGAAUGGAAUGGAAUGGAAUGGAAUGGAAUGGAAUGGAA; assay: SPR; details: 150 mM NaCl; 10 mM HEPES pH 7.4, 3 mM EDTA, 0.05% P20; 500 nM compound
[8] = test system: r(UAAAA)9 (RNA, repeat) UAAAAUAAAAUAAAAUAAAAUAAAAUAAAAUAAAAUAAAAUAAAA; assay: UV melting; details: 100 mM NaCl; 10 mM sodium cacodylate pH 7.0; 20 µM compound, 2 µM RNA
[9] = test system: r(UGGAA)9 (RNA, repeat) UGGAAUGGAAUGGAAUGGAAUGGAAUGGAAUGGAAUGGAAUGGAA; assay: UV melting; details: 100 mM NaCl; 10 mM sodium cacodylate pH 7.0; 20 µM compound, 2 µM RNA; Tm 73.7 °C with NCD, none without

binding [1]: yes | ΔTm [2]: 5.2 °C | binding [3]: yes | binding [4]: yes | Kd(app) [5]: 32 nM | Tm [6]: 21.5 °C | binding [7]: yes | binding [8]: no | binding [9]: yes
Compound: Cc1ccc2ccc(NC(=O)OCCCNCCCOC(=O)Nc3ccc4ccc(C)nc4n3)nc2n1
